Earlier results in patent publication US20180311201A1, “ORAL PHARMACEUTICAL COMPOSITION COMPRISING OTILONIUM BROMIDE AND SIMETHICONE WITH CERTAIN BULK DENSITY AND IMPROVED DISSOLUTION CHARACTERISTICS” (priority 2015, published 2018).

Which results are given for `CCCCCCCCOc1ccccc1C(=O)Nc1ccc(C(=O)OCC[N+](C)(CC)CC)cc1.[Br-]` [Otilonium bromide, N,N-Diethyl-N-methyl-2-(4-[2-(octyloxy)benzamido]benzoyloxy)ethanaminium bromide]?
Solubility in dimethyl sulfoxide (dimethyl sulfoxide): > 25 mg/mL; Solubility in ethanol (ethanol): soluble; Solubility in water (water): 12 mg/mL
